From ChEMBL document CHEMBL4651402, “Screening of ~5500 FDA-approved drugs and clinical candidates for anti-SARS-CoV-2 activity” (2021)

Test system: SARS-CoV-2
Experiment: microbe, parasite or virus in culture
Conditions: Severe acute respiratory syndrome coronavirus 2, Vero C1008, 48 h

SMILES | IC50 | IC50 (read-out: pIC50 (converted))
CN1C[C@H](CO)C=C2c3cccc4[nH]cc(c34)C[C@H]21 | > 20 µM | > 20 µM
CC(=O)OCC(=O)C1(O)C(C)CC2C3CC(F)C4=CC(=O)C=CC4(C)C3C(O)CC21C (stereo not given) | > 20 µM | > 20 µM
CSC[C@H](NC(=O)COc1cccc2cnccc12)C(=O)N[C@@H](Cc1ccccc1)[C@H](O)C(=O)N1CSC[C@H]1C(=O)NC(C)(C)C | > 20 µM | > 20 µM
C=C(C)C1Cc2c(ccc3c2OC2COc4cc(OC)c(OC)cc4C2C3=O)O1 (stereo not given) | > 20 µM | > 20 µM
CN1CC[C@@]2(C)c3cc(O)ccc3N(C)[C@H]12 | > 20 µM | > 20 µM
CC(=O)Oc1cccc(C)c1 | > 20 µM | > 20 µM
CC(C=NNC(=N)N)=NNC(=N)N | > 20 µM | > 20 µM
CC(C)(O/N=C(/C(=O)NC1C(=O)N2C(C(=O)O)=C(C[n+]3ccccc3)CSC12)c1csc(N)n1)C(=O)O (stereo not given) | > 20 µM | > 20 µM
CC(C)CCCC(C)C1CCC2C3CC(O)[C@@]4(O)CC(O)CCC4(C)C3CCC12C (stereo not given in full) | > 20 µM | > 20 µM
C=C1[C@H](n2ccc(N)nc2=O)O[C@H](CO)[C@H]1O | > 20 µM | > 20 µM
CC(=O)OC1CCC2(C)C(=CCC3C2CCC2(C)C(C(C)CCCC(C)C)CCC32)C1 (stereo not given) | > 20 µM | > 20 µM
CC1(C)SC2C(NC(=O)C(NC(=O)N3CCNC3=O)c3ccccc3)C(=O)N2C1C(=O)O (stereo not given) | > 20 µM | > 20 µM
CC12C=CC(=O)C=C1C(F)CC1C2C(O)CC2(C)C1CCC2(O)C(=O)CO (stereo not given) | > 20 µM | > 20 µM
CC(C)N(CCC(C(N)=O)(c1ccccc1)c1ccccc1)C(C)C | > 20 µM | > 20 µM
CC[C@H](C)C[C@H](C)CCCCCCCCC(=O)N[C@H]1C[C@@H](O)[C@H](NCCN)NC(=O)[C@@H]2[C@@H](O)CCN2C(=O)[C@H]([C@H](O)CCN)NC(=O)C([C@H](O)[C@@H](O)c2ccc(O)cc2)NC(=O)[C@@H]2C[C@@H](O)CN2C(=O)C([C@@H](C)O)NC1=O (stereo not given in full) | > 20 µM | > 20 µM
CC(=O)C1CCC2C3CCC4CC(O)CCC4(C)C3CC(O)C12C (stereo not given) | > 20 µM | > 20 µM
CN1[C@@H]2CC(=O)C[C@H]1[C@H](O)C2 | > 20 µM | > 20 µM
O=c1cc2c(nn1-c1ccc(Cl)cc1)-c1ccccc1[S+]([O-])CC2 (stereo not given) | > 20 µM | > 20 µM
CC12CCC3C(CC[C@H]4CC(=O)CCC34C)C1CCC2C(=O)CO (stereo not given in full) | > 20 µM | > 20 µM
CC1C(=O)CC[C@@H]2C1(C)CC[C@H]1C2(C)CCC2(C)C3CC(C)(C)CCC3(C)CCC12C (stereo not given in full) | > 20 µM | > 20 µM

SMILES | IC50 | IC50 (read-out: pIC50 (converted))
Cc1cc(CC(=O)O)n(C)c1[14C](=O)c1ccc(Cl)cc1 | > 20 µM | > 20 µM
C=CC[N@@+]12CC[C@]34c5ccccc5N5/C=C6\C7N(/C=C(/C53)[C@@H](C[C@@H]41)/C(=C/CO)C2)c1ccccc1[C@@]71CC[N@@+]2(CC=C)C/C(=C\CO)[C@@H]6C[C@@H]12 (stereo not given in full) | > 20 µM | > 20 µM
CC(=O)OC1CCC2(C)C3CC(=O)C4(C)C(CC5O[C@]6(CCC(C)CO6)C(C)C54)C3CC[C@H]2C1 (stereo not given in full) | > 20 µM | > 20 µM
CCC(=O)O[C@@H]1CC(=O)O[C@H](C)C/C=C\C=C/[C@@H](O)[C@H](C)C[C@H](CC=O)[C@H](O[C@H]2O[C@H](C)[C@@H](O[C@H]3C[C@@](C)(O)[C@@H](OC(=O)CC)[C@H](C)O3)[C@H](N(C)C)[C@H]2O)[C@H]1OC | > 20 µM | > 20 µM
CC(=O)OCC(=O)[C@@]1(O)CCC2C3CCC4=CC(=O)CC[C@]4(C)C3=CC[C@@]21C (stereo not given in full) | > 20 µM | > 20 µM
O=C(O)CC/C=C/CCC1C(OCc2ccc(-c3ccccc3)cc2)CC(O)C1N1CCCCC1 (stereo not given) | > 20 µM | > 20 µM
OC(c1ccccc1)(c1ccccc1)[C@@H]1C[C@H]1c1ccncc1 | > 20 µM | > 20 µM
CN1c2ccccc2[C@H](NCCCCCCC(=O)O)c2ccc(Cl)cc2S1(=O)=O | > 20 µM | > 20 µM
CC12CCC(=O)C=C1CCC1C2C(O)CC2(C)C1CCC2(O)C(=O)COP(=O)(O)O (stereo not given) | > 20 µM | > 20 µM
CC(=O)OC1CCC2(C)C(=CCC3C2CCC2(C)C(OC(=O)c4ccccc4)CCC32)C1 (stereo not given) | > 20 µM | > 20 µM
NC(=O)CCC/N=C(/c1ccc(Cl)cc1)c1cc(F)ccc1O | > 20 µM | > 20 µM
CCC(C)C(NC(=O)C(CCC(N)=O)NC(=O)C1CCCN1C(=O)C(CCCNC(=N)N)NC(=O)C1CCCN1C(=O)C(Cc1c[nH]c2ccccc12)NC(=O)C1CCC(=O)N1)C(=O)N1CCCC1C(=O)N1CCCC1C(=O)O (stereo not given) | > 20 µM | > 20 µM
O=C1O[C@@H]([C@@H](O)CO)C(O)=C1O | > 20 µM | > 20 µM
CC(=O)O[C@H]1C(=O)[C@@]2(C)C([C@H](OC(=O)c3ccccc3)[C@]3(O)C[C@H](OC(=O)[C@H](O)[C@@H](NC(=O)c4ccccc4)c4ccccc4)C(C)=C1C3(C)C)[C@]1(OC(C)=O)CO[C@@H]1C[C@@H]2O (stereo not given in full) | > 20 µM | > 20 µM
[N-]=[N+]=N[C@]1(CO)O[C@@H](n2ccc(N)nc2=O)[C@@H](O)[C@@H]1O | > 20 µM | > 20 µM
COC(=O)c1cnc2n1CCc1ccccc1C2=C1CCN(CCc2ccc(OCc3ccc4ccccc4n3)cc2)CC1 | > 20 µM | > 20 µM
COc1ccc(-c2ccc(Cn3c(CC(C)(C)C(=O)O)c(SC(C)(C)C)c4cc(OCc5ccccn5)ccc43)cc2)cn1 | > 20 µM | > 20 µM
O=C(NCNC(=O)NC1C(=O)NC(=O)N1CO)NC1C(=O)NC(=O)N1CO (stereo not given) | > 20 µM | > 20 µM
Nc1ccccc1S(N)(=O)=O | > 20 µM | > 20 µM
Nc1nc(=O)n([C@H]2CC[C@@H](CO)O2)cc1F | > 20 µM | > 20 µM
